Legend:
Type in all cases: in vivo
Abutilon theophrasti [1] = test: Post-emergence herbicidal action (Experimental Part 1, A); conditions: about 3 weeks after treatment, 100% = plants have died, 0% = like control plants
Protocol: (§1) Seeds of monocotyledonous and dicotyledonous weeds and crop plants were placed in sandy loam in plastic or wood-fiber pots, covered with soil and cultivated in a greenhouse under controlled growth conditions. 2 to 3 weeks after sowing, the test plants were treated at the one-leaf stage. The compounds of the invention, formulated in the form of wettable powders (WP) or as emulsion concentrates (EC), were then sprayed onto the green parts of the plants as aqueous suspension or emulsion with addition of 0.5% additive at a water application rate of 600 l/ha (converted). After the test plants had been kept in the greenhouse under optimum growth conditions for about 3 weeks, the activity of the preparations was rated visually in comparison to untreated controls. For example, 100% activity=the plants have died, 0% activity=like control plants. Tables A1 to A14 below show the effects of selected compounds of the general formula (I) according to Tables I.1 to I.116 on various harmful plants and an application rate corresponding to 1280 g/ha or 320 g/ha, which were obtained by the experimental procedure mentioned above.

Alopecurus myosuroides [2] = test: as above; conditions: application rate 320 g/ha, about 3 weeks after treatment, 100% = plants have died, 0% = like control plants
Protocol: as §1

Amaranthus retroflexus [3] = test: as above; conditions: about 3 weeks after treatment, 100% = plants have died, 0% = like control plants
Protocol: as §1

Echinochloa crus-galli [4] = test: as above; conditions: application rate 320 g/ha, about 3 weeks after treatment, 100% = plants have died, 0% = like control plants
Protocol: as §1

Ipomoea purpurea [5] = test: as above; conditions: rated visually after about 3 weeks
Protocol: as §1

Matricaria inodora [6] = test: as above; conditions: rated visually after about 3 weeks
Protocol: as §1

Polygonum convolvulus [7] = test: as above; conditions: rated visually after about 3 weeks
Protocol: as §1

Setaria viridis [8] = test: as above; conditions: about 3 weeks after treatment, 100% = plants have died, 0% = like control plants
Protocol: as §1

Stellaria media [9] = test: as above; conditions: rated visually after about 3 weeks
Protocol: as §1

Veronica persica = test: as above; conditions: about 3 weeks after treatment, 100% = plants have died, 0% = like control plants
Protocol: as §1

Viola tricolor [10] = test: as above; conditions: rated visually after about 3 weeks
Protocol: as §1

Abutilon theophrasti [11] = test: Pre-emergence herbicidal action (Experimental Part 1, B); conditions: scored visually after about 3 weeks
Description: (§2) Seeds of monocotyledonous and dicotyledonous weed plants and crop plants were placed in plastic or organic planting pots and covered with soil. The compounds of the invention, formulated in the form of wettable powders (WP) or as emulsion concentrates (EC), were then applied onto the surface of the covering soil as aqueous suspension or emulsion with addition of 0.5% additive at a water application rate of 600 l/ha (converted). After the treatment, the pots were placed in a greenhouse and kept under good growth conditions for the test plants. After about 3 weeks, the effect of the preparations was scored visually in comparison with untreated controls as percentages. For example, 100% activity=the plants have died, 0% activity=like control plants. Tables B1 to B14 below show the effects of selected compounds of the general formula (I) according to Tables I.1 to I.116 on various harmful plants and an application rate corresponding to 1280 g/ha or 320 g/ha, which were obtained by the experimental procedure mentioned above.

Alopecurus myosuroides [12] = test: as above; conditions: scored visually after about 3 weeks
Description: as §2

Amaranthus retroflexus [13] = test: as above; conditions: scored visually after about 3 weeks
Description: as §2

Avena fatua = test: as above; conditions: scored visually after about 3 weeks
Description: as §2

Echinochloa crus-galli [14] = test: as above; conditions: application rate 320 g/ha, scored visually after about 3 weeks
Description: as §2

Ipomoea purpurea [15] = test: as above; conditions: application rate 320 g/ha, scored visually after about 3 weeks
Description: as §2

Lolium rigidum = test: as above; conditions: application rate 1280 g/ha, scored visually after about 3 weeks
Description: as §2

Matricaria inodora [16] = test: as above; conditions: scored visually after about 3 weeks
Description: as §2

Polygonum convolvulus [17] = test: as above; conditions: scored visually after about 3 weeks
Description: as §2

Setaria viridis [18] = test: as above; conditions: scored visually after about 3 weeks
Description: as §2

Stellaria media [19] = test: as above; conditions: scored visually after about 3 weeks
Description: as §2

Viola tricolor [20] = test: as above; conditions: scored visually after about 3 weeks
Description: as §2

CCOC(=O)OC1C(C)=CC(=O)N1c1cc(C(C)(C)C)on1 (centres unmarked) [I.11-162, 5-Ethoxycarbonyloxy-4-methyl-1-(5-tert-butyl-1,2-isoxazol-3-yl)-1,5-dihydro-2H-pyrrol-2-one]
100%: herbicidal activity on Abutilon theophrasti (visual rating vs untreated controls) (Abutilon theophrasti [1]; application rate 320 g/ha) | herbicidal activity on Alopecurus myosuroides (visual rating vs untreated controls) (Alopecurus myosuroides [2]) | herbicidal activity on Amaranthus retroflexus (visual rating vs untreated controls) (Amaranthus retroflexus [3]; application rate 320 g/ha) | Matricaria inodora, herbicidal activity (Matricaria inodora [6]; application rate 320 g/ha) | Polygonum convolvulus, herbicidal activity (Polygonum convolvulus [7]; application rate 320 g/ha) | herbicidal activity on Setaria viridis (visual rating vs untreated controls) (Setaria viridis [8]; application rate 320 g/ha) | Stellaria media, herbicidal activity (Stellaria media [9]; application rate 320 g/ha) | herbicidal activity on Veronica persica (visual rating vs untreated controls) (Veronica persica; application rate 320 g/ha) | Viola tricolor, herbicidal activity (Viola tricolor [10]; application rate 320 g/ha) | Abutilon theophrasti, herbicidal activity (Abutilon theophrasti [11]; application rate 320 g/ha) | Alopecurus myosuroides, herbicidal activity (Alopecurus myosuroides [12]; application rate 320 g/ha) | Amaranthus retroflexus, herbicidal activity (Amaranthus retroflexus [13]; application rate 320 g/ha) | Echinochloa crus-galli, herbicidal activity (Echinochloa crus-galli [14]) | Matricaria inodora, herbicidal activity (Matricaria inodora [16]; application rate 320 g/ha) | Polygonum convolvulus, herbicidal activity (Polygonum convolvulus [17]; application rate 320 g/ha) | Setaria viridis, herbicidal activity (Setaria viridis [18]; application rate 320 g/ha) | Stellaria media, herbicidal activity (Stellaria media [19]; application rate 320 g/ha) | Viola tricolor, herbicidal activity (Viola tricolor [20]; application rate 320 g/ha)
90%: herbicidal activity on Echinochloa crus-galli (visual rating vs untreated controls) (Echinochloa crus-galli [4]) | Ipomoea purpurea, herbicidal activity (Ipomoea purpurea [5]; application rate 320 g/ha) | Avena fatua, herbicidal activity (Avena fatua; application rate 320 g/ha) | Ipomoea purpurea, herbicidal activity (Ipomoea purpurea [15]) | Lolium rigidum, herbicidal activity (Lolium rigidum)

CCOC(=O)OC1C=C(C)C(=O)N1c1cc(C(F)(F)F)c(Cl)cn1 (centres unmarked) [I.12-451]
90%: Matricaria inodora, herbicidal activity (Matricaria inodora [6]; application rate 320 g/ha) | Alopecurus myosuroides, herbicidal activity (Alopecurus myosuroides [12]; application rate 1280 g/ha) | Avena fatua, herbicidal activity (Avena fatua; application rate 1280 g/ha) | Matricaria inodora, herbicidal activity (Matricaria inodora [16]; application rate 1280 g/ha) | Setaria viridis, herbicidal activity (Setaria viridis [18]; application rate 320 g/ha)
100%: herbicidal activity on Abutilon theophrasti (visual rating vs untreated controls) (Abutilon theophrasti [1]; application rate 320 g/ha) | herbicidal activity on Abutilon theophrasti (visual rating vs untreated controls) (Abutilon theophrasti [1]; application rate 1280 g/ha) | herbicidal activity on Amaranthus retroflexus (visual rating vs untreated controls) (Amaranthus retroflexus [3]; application rate 320 g/ha) | herbicidal activity on Amaranthus retroflexus (visual rating vs untreated controls) (Amaranthus retroflexus [3]; application rate 1280 g/ha) | Ipomoea purpurea, herbicidal activity (Ipomoea purpurea [5]; application rate 320 g/ha) | Ipomoea purpurea, herbicidal activity (Ipomoea purpurea [5]; application rate 1280 g/ha) | Matricaria inodora, herbicidal activity (Matricaria inodora [6]; application rate 1280 g/ha) | Polygonum convolvulus, herbicidal activity (Polygonum convolvulus [7]; application rate 320 g/ha) | Polygonum convolvulus, herbicidal activity (Polygonum convolvulus [7]; application rate 1280 g/ha) | herbicidal activity on Setaria viridis (visual rating vs untreated controls) (Setaria viridis [8]; application rate 320 g/ha) | herbicidal activity on Setaria viridis (visual rating vs untreated controls) (Setaria viridis [8]; application rate 1280 g/ha) | Stellaria media, herbicidal activity (Stellaria media [9]; application rate 320 g/ha) | Stellaria media, herbicidal activity (Stellaria media [9]; application rate 1280 g/ha) | herbicidal activity on Veronica persica (visual rating vs untreated controls) (Veronica persica; application rate 1280 g/ha) | Viola tricolor, herbicidal activity (Viola tricolor [10]; application rate 320 g/ha) | Viola tricolor, herbicidal activity (Viola tricolor [10]; application rate 1280 g/ha) | Abutilon theophrasti, herbicidal activity (Abutilon theophrasti [11]; application rate 1280 g/ha) | Amaranthus retroflexus, herbicidal activity (Amaranthus retroflexus [13]; application rate 320 g/ha) | Amaranthus retroflexus, herbicidal activity (Amaranthus retroflexus [13]; application rate 1280 g/ha) | Polygonum convolvulus, herbicidal activity (Polygonum convolvulus [17]; application rate 1280 g/ha) | Setaria viridis, herbicidal activity (Setaria viridis [18]; application rate 1280 g/ha) | Stellaria media, herbicidal activity (Stellaria media [19]; application rate 320 g/ha) | Stellaria media, herbicidal activity (Stellaria media [19]; application rate 1280 g/ha) | Viola tricolor, herbicidal activity (Viola tricolor [20]; application rate 320 g/ha) | Viola tricolor, herbicidal activity (Viola tricolor [20]; application rate 1280 g/ha)
